# Experimental data as given in ChEMBL document CHEMBL5375979, “Chemical, Biochemical, Cellular, and Physiological Characterization of Leucettinib-21, a Down Syndrome and Alzheimer's Disease Drug Candidate” (J Med Chem, 2023).
# How the values were obtained:
# [1] = biological target: T1, Dual specificity protein kinase CLK1 (Homo sapiens, UniProt P49759)
# [2] = biological target: Dual specificity protein kinase CLK4 (Homo sapiens, UniProt Q9HAZ1)
# [3] = biological target: Cyclin-dependent kinase-like 2 (Homo sapiens, UniProt Q92772)
# Description: Inhibition of human CDKL2 assessed as remaining activity by eurofins-cerep kinase profiler analysis
# [4] = biological target: Cyclin-dependent kinase-like 3 (Homo sapiens, UniProt Q8IVW4)
# Description: Inhibition of human CDKL3 assessed as remaining activity by eurofins-cerep kinase profiler analysis
# [5] = biological target: Cyclin-dependent kinase-like 4 (Homo sapiens, UniProt Q5MAI5)
# Sequence of Cyclin-dependent kinase-like 4 (Q5MAI5 whole entry): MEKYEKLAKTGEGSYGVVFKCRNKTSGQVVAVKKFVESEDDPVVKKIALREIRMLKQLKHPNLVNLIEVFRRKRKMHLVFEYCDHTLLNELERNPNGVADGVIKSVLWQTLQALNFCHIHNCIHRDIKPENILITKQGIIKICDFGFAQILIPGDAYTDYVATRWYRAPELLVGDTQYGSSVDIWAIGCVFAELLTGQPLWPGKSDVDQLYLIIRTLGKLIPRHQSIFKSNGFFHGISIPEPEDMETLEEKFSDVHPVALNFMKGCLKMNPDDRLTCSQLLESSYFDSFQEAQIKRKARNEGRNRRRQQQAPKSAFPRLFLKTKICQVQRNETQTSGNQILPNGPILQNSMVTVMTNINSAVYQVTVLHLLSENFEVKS
# Description: Inhibition of human CDKL4 assessed as remaining activity by eurofins-cerep kinase profiler analysis
# [6] = biological target: Cyclin-dependent kinase-like 5 (Homo sapiens, UniProt O76039)
# Description: Inhibition of human CDKL5 assessed as remaining activity by eurofins-cerep kinase profiler analysis
# [7] = biological target: T1, Dual specificity protein kinase CLK1; remark: listed apart in the source
# [8] = biological target: Dual specificity protein kinase CLK2 (Homo sapiens, UniProt P49760)
# Description: Inhibition of human CLK2 assessed as remaining activity by eurofins-cerep kinase profiler analysis
# [9] = biological target: T2, Dual specificity protein kinase CLK3 (Homo sapiens, UniProt P49761)
# Description: Inhibition of human CLK3 assessed as remaining activity by eurofins-cerep kinase profiler analysis
# [10] = biological target: T3, Dual specificity tyrosine-phosphorylation-regulated kinase 2 (Homo sapiens, UniProt Q92630)
# T3 sequence (Q92630 whole entry): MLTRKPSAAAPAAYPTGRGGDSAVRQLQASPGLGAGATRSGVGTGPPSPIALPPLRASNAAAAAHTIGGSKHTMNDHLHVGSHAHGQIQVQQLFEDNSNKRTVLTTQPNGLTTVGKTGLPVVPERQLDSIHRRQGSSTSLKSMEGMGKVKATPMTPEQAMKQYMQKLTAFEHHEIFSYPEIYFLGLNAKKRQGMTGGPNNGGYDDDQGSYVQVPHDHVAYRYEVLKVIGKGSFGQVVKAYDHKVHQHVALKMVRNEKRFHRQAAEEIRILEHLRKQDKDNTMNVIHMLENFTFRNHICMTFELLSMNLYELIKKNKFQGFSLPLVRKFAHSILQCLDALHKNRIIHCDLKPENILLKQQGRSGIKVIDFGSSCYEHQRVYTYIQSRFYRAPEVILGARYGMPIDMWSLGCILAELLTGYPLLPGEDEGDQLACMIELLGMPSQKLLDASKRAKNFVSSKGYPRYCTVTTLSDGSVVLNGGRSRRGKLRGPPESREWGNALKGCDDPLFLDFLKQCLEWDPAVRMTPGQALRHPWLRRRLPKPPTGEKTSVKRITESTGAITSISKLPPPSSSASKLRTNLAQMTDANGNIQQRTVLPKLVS
# Description: Inhibition of human DYRK2 assessed as remaining activity by eurofins-cerep kinase profiler analysis
# [11] = biological target: Serine/threonine-protein kinase haspin (Homo sapiens, UniProt Q8TF76)
# Description: Inhibition of human HASPIN assessed as remaining activity by eurofins-cerep kinase profiler analysis
# [12] = biological target: Homeodomain-interacting protein kinase 1 (Homo sapiens, UniProt Q86Z02)
# Sequence of Homeodomain-interacting protein kinase 1 (Q86Z02 whole entry): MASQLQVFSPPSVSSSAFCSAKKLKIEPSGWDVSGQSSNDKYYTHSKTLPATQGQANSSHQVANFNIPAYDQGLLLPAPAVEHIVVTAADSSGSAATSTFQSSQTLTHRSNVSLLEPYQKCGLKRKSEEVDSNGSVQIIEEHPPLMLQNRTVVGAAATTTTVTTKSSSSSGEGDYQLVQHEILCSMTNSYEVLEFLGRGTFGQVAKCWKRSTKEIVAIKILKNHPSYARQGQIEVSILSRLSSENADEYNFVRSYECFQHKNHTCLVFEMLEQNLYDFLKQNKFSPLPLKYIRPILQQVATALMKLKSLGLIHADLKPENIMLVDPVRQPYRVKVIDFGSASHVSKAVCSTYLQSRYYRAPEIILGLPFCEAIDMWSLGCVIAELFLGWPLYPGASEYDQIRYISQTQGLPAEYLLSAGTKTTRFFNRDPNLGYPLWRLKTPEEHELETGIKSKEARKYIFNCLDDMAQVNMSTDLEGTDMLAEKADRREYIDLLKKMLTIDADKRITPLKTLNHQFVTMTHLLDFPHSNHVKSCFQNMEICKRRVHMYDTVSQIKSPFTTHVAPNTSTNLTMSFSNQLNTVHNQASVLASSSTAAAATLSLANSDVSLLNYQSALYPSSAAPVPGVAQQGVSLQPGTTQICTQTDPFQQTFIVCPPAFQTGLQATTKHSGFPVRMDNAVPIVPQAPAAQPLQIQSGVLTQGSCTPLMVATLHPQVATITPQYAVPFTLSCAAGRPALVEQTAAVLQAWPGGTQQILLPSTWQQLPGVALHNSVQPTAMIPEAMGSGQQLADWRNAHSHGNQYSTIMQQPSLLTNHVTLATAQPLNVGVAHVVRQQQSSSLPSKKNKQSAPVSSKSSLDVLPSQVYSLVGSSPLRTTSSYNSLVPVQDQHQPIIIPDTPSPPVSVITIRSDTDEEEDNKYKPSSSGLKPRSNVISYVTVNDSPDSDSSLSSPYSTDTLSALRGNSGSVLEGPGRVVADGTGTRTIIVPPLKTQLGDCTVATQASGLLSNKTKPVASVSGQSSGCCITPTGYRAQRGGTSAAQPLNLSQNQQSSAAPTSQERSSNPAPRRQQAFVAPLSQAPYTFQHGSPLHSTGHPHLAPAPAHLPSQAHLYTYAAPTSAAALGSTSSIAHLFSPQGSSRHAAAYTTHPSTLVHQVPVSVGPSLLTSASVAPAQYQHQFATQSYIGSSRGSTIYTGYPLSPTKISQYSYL
# Description: Inhibition of human HIPK1 assessed as remaining activity by eurofins-cerep kinase profiler analysis
# [13] = biological target: Homeodomain-interacting protein kinase 3 (Homo sapiens, UniProt Q9H422)
# Description: Inhibition of human HIPK3 assessed as remaining activity by eurofins-cerep kinase profiler analysis
# [14] = biological target: Homeodomain-interacting protein kinase 4 (Homo sapiens, UniProt Q8NE63)
# Description: Inhibition of human HIPK4 assessed as remaining activity by eurofins-cerep kinase profiler analysis
# [15] = biological target: cGMP-dependent protein kinase 2 (Homo sapiens, UniProt Q13237)
# Description: Inhibition of human PRKG2 assessed as remaining activity by eurofins-cerep kinase profiler analysis
# [16] = biological target: Serine/threonine-protein kinase TAO1 (Homo sapiens, UniProt Q7L7X3)
# Sequence of Serine/threonine-protein kinase TAO1 (Q7L7X3 whole entry): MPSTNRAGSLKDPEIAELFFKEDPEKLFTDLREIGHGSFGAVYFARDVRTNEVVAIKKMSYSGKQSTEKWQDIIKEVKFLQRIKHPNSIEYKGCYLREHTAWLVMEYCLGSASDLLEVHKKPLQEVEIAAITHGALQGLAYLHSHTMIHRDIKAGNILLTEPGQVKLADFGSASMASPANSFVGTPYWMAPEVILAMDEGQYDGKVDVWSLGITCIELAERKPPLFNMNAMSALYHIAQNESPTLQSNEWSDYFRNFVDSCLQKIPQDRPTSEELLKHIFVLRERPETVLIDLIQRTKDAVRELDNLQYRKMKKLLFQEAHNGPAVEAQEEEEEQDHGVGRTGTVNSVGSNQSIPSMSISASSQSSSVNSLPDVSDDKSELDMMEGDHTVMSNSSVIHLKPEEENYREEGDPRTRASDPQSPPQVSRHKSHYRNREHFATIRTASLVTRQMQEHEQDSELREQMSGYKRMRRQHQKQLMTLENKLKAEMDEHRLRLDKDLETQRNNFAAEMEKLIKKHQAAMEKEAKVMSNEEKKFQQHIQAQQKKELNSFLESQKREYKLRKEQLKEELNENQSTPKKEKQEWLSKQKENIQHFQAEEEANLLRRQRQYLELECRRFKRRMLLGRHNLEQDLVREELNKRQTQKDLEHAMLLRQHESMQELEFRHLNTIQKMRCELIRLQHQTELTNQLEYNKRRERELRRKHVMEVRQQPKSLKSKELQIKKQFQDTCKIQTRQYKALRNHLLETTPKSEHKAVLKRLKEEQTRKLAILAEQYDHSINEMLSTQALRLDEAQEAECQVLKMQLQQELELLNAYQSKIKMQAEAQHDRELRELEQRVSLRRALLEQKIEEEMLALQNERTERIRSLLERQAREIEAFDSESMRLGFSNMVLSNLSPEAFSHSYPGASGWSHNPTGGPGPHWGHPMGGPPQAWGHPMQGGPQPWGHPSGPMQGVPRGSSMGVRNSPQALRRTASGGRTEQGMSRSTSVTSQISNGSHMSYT
# Description: Inhibition of human TAO1 assessed as remaining activity by eurofins-cerep kinase profiler analysis
# [17] = biological target: Serine/threonine-protein kinase TAO2 (Homo sapiens, UniProt Q9UL54)
# Description: Inhibition of human TAO2 assessed as remaining activity by eurofins-cerep kinase profiler analysis
# [18] = biological target: Serine/threonine-protein kinase TAO3 (Homo sapiens, UniProt Q9H2K8)
# Description: Inhibition of human TAO3 assessed as remaining activity by eurofins-cerep kinase profiler analysis
# Tribbles homolog 2 = Tribbles homolog 2 (Homo sapiens, UniProt Q92519)
# Sequence of Tribbles homolog 2 (Q92519 whole entry): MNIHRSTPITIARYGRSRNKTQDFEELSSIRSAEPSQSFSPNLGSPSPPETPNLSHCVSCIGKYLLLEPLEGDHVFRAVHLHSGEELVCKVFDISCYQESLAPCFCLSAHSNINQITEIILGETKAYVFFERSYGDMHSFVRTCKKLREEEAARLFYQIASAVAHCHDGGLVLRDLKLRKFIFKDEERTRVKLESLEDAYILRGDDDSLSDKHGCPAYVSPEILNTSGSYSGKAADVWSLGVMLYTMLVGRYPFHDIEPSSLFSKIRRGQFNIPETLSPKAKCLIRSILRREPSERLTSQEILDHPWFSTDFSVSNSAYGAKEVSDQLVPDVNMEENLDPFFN
# Description: Inhibition of human TRB2 assessed as remaining activity by eurofins-cerep kinase profiler analysis
# [19] = biological target: BMP-2-inducible protein kinase (Homo sapiens) (UniProt Q9NSY1); details: dose 10.0 µM
# [20] = biological target: T2, Dual specificity protein kinase CLK3; details: dose 10.0 µM
# [21] = biological target: Dual specificity tyrosine-phosphorylation-regulated kinase 2 (Homo sapiens) (UniProt Q92630); details: dose 10.0 µM
# [22] = biological target: Mitogen-activated protein kinase 15 (Homo sapiens) (UniProt Q8TD08); details: dose 10.0 µM
# [23] = biological target: Glycogen synthase kinase-3 beta (Homo sapiens) (UniProt P49841); details: dose 10.0 µM
# [24] = biological target: Myotonin-protein kinase (Homo sapiens) (UniProt Q09013); details: dose 10.0 µM
# [25] = biological target: Casein kinase II subunit alpha (Homo sapiens) (UniProt P68400); details: dose 10.0 µM
# [26] = biological target: Death-associated protein kinase 3 (Homo sapiens) (UniProt O43293); details: dose 10.0 µM
# [27] = biological target: Aurora kinase A (Homo sapiens) (UniProt O14965); details: dose 10.0 µM
# [28] = biological target: Cyclin-G-associated kinase (Homo sapiens) (UniProt O14976); details: dose 10.0 µM
# [29] = biological target: Homeodomain-interacting protein kinase 2 (Homo sapiens, UniProt Q9H2X6); details: dose 10.0 µM
# [30] = biological target: Maternal embryonic leucine zipper kinase (Homo sapiens) (UniProt Q14680); details: dose 10.0 µM
# Sequence of Maternal embryonic leucine zipper kinase (Homo sapiens) (Q14680 whole entry, looked up): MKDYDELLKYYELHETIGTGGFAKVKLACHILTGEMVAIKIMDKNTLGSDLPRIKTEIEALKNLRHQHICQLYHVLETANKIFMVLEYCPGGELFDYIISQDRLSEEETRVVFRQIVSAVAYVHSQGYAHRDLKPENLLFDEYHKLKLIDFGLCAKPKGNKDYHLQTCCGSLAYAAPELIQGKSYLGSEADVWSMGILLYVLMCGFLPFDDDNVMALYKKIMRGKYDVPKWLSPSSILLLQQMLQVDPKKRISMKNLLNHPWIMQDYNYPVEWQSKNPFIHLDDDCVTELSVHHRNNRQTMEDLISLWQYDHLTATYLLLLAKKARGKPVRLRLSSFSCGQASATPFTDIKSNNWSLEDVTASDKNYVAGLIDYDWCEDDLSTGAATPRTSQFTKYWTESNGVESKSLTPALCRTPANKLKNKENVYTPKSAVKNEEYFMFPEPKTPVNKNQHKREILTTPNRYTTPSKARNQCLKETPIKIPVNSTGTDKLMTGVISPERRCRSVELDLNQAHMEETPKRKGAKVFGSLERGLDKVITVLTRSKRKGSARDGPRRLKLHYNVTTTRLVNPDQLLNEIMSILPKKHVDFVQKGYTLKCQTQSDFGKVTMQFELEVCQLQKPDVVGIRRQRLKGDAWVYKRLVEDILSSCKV
# [31] = biological target: Calcium/calmodulin-dependent protein kinase kinase 2 (Homo sapiens) (UniProt Q96RR4); details: dose 10.0 µM
# [32] = biological target: Serine/threonine-protein kinase PLK4 (Homo sapiens) (UniProt O00444); details: dose 10.0 µM
# Sequence of Serine/threonine-protein kinase PLK4 (Homo sapiens) (O00444 whole entry): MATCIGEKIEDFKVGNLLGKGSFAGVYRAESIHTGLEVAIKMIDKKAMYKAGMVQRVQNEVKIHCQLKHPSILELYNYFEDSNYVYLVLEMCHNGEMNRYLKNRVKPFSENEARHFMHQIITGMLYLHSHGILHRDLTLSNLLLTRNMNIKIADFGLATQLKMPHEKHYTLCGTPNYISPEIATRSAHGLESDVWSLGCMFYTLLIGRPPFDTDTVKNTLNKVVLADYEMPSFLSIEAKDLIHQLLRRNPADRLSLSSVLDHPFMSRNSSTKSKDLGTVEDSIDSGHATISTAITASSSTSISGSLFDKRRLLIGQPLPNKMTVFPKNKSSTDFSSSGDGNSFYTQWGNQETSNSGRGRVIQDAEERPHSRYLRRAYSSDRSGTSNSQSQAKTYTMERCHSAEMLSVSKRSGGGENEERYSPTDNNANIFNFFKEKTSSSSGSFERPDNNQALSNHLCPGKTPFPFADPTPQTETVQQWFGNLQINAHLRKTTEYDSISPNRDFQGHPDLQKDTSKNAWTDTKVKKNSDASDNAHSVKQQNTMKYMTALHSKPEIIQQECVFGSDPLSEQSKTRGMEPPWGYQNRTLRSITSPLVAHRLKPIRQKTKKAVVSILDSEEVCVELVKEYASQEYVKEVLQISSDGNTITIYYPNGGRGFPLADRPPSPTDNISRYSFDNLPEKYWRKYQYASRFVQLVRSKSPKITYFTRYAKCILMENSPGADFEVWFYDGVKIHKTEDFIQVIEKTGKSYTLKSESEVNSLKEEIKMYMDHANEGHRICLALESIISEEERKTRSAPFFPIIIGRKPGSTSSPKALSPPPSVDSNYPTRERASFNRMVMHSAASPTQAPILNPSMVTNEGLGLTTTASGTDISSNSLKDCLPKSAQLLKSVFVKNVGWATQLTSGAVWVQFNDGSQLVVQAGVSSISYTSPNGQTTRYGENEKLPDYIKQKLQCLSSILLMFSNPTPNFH
# T1 sequence (P49759 whole entry): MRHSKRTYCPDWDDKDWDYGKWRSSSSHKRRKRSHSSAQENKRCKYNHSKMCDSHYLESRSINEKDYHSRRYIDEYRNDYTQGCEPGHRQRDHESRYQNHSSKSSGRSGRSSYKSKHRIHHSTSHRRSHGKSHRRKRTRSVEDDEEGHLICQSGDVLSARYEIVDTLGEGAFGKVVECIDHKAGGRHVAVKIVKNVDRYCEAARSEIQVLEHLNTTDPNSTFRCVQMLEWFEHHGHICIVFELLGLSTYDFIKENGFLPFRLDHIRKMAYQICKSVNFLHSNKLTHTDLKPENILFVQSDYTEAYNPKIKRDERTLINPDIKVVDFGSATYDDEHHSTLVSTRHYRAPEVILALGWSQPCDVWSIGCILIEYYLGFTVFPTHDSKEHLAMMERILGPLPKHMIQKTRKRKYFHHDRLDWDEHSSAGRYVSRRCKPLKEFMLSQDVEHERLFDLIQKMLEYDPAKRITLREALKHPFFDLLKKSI
smiles,measurement,setting,value
COC[C@@H](CC(C)C)NC1=N/C(=C\c2ccc3scnc3c2)C(=O)N1,IC50,[1],> 10 µM
same,IC50,[2],> 10 µM
same,IC50,[3],> 1 µM
same,IC50,[4],> 1 µM
same,IC50,[5],> 1 µM
same,IC50,[6],> 10 µM
same,IC50,[7],> 1 µM
same,IC50,[8],> 1 µM
same,IC50,[9],> 1 µM
same,IC50,[10],> 1 µM
same,IC50,[11],> 10 µM
same,IC50,[12],> 10 µM
same,IC50,[13],> 10 µM
same,IC50,[14],> 10 µM
same,IC50,[15],> 10 µM
same,IC50,[16],> 10 µM
same,IC50,[17],> 10 µM
same,IC50,[18],> 10 µM
same,IC50,Tribbles homolog 2,> 1 µM
same,ΔTm,[19],4 °C
same,ΔTm,[20],0.3 °C
same,ΔTm,[21],1.7 °C
same,ΔTm,[22],4.7 °C
same,ΔTm,[23],2.1 °C
same,ΔTm,[24],1.1 °C
same,ΔTm,[25],1.4 °C
same,ΔTm,[26],1.2 °C
same,ΔTm,[27],1.4 °C
same,ΔTm,[28],3.5 °C
same,ΔTm,[29],0.6 °C
same,ΔTm,[30],0.4 °C
same,ΔTm,[31],-1.2 °C
same,ΔTm,[32],1.4 °C
